Measurements reported in patent publication US9469617B2, “Molecules having certain pesticidal utilities, and intermediates, compositions, and processes related thereto” (priority 2014, dated 2016).
Where two headings read alike, the source gives them in different places.

Experiments:
Type in all cases: in vivo
[1] = system: Yellow Fever Mosquito (YFM) (Aedes aegypti); test: Bioassay on Yellow Fever Mosquito (YFM) larvae, 96-well plate; conditions: about 1 day-old larvae, master plate 4000 ppm in DMSO diluted, scored on mortality after 3 days
In short: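 Compounds from 4000 ppm DMSO master solutions, diluted in 90:10 water:acetone, dispensed into wells and infested with about 1-day-old larvae in liver-powder water. Held covered at room temperature for 3 days, then each well scored for mortality; 6 replicate plates per master.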

[2] = system: Green Peach Aphid (GPA) (Myzus persicae); test: Bioassay on Green Peach Aphid (GPA), foliar spray on cabbage seedlings; conditions: 72 h, 200 ppm foliar spray on cabbage seedlings, graded after three days, Abbott corrected % control, read-out: GPA % Control (or Mortality) rating
Protocol: Certain molecules disclosed in this document were tested against GPA using procedures described in the following example. In the reporting of the results, the “GPA & YFM Rating Table” was used (See Table Section).
Cabbage seedlings grown in 3-inch pots, with 2-3 small (3-5 cm) true leaves, were used as test substrate. The seedlings were infested with 20-50 GPA (wingless adult and nymph stages) one day prior to chemical application. Four pots with individual seedlings were used for each treatment. Test compounds (2 mg) were dissolved in 2 mL of acetone/MeOH (1:1) solvent, forming stock solutions of 1000 ppm test compound. The stock solutions were diluted 5× with 0.025% Tween 20 in water to obtain the solution at 200 ppm test compound. A hand-held aspirator-type sprayer was used for spraying a solution to both sides of […] leaves until runoff. Reference plants (solvent check) were sprayed with the diluent only containing 20% by volume of acetone/MeOH (1:1) solvent. Treated plants were held in a holding room for three days at approximately 25° C. and ambient relative humidity (RH) prior to grading. Evaluation was conducted by counting the number of live aphids per plant under a microscope. Percent Control was measured by using Abbott's correction formula (W. S. Abbott, “A Method of Computing the Effectiveness of an Insecticide” J. Econ. Entomol. 18 (1925), pp. 265-267) as follows. Corrected % Control=100*(X−Y)/X where X=No. of live aphids on solvent check plants and Y=No. of live aphids on treated plants. The results are indicated in the table entitled “Table ABC: Assay Results” and “Table ABCD: Assay Results” (See Table Section).

[3] = system: Cabbage Looper (CL) (Trichoplusia ni); test: Bioassay on Cabbage Looper (CL), 128-well diet tray assay; conditions: 168 h, 50 μg/cm^2 on artificial diet, second instar larvae, five to seven days, 25° C., read-out: CL % Control (or Mortality) rating
In short: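 Second-instar larvae (one to five per well) placed on artificial diet treated with 50 μg/cm^2 compound in 90:10 acetone-water, dried, eight wells per compound. Held at 25 °C, 14:10 light-dark for five to seven days; percent mortality per well, averaged over the eight wells.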

[4] = system: Beet Armyworm (BAW) (Spodoptera exigua); test: Bioassay on Beet Armyworm (BAW), 128-well diet tray assay; conditions: 168 h, 50 μg/cm^2 on artificial diet, second instar larvae, five to seven days, 25° C., read-out: BAW % Control (or Mortality) rating
In short: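 Artificial diet was surface-treated with 50 μg/cm^2 compound in 90:10 acetone-water and dried, then infested with one to five second-instar larvae per well. Trays were held 5–7 days at 25° C, 14:10 light-dark. Percent mortality was averaged over eight wells.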

| SMILES | YFM % Control (or Mortality) rating ([1]; Table ABCD) | mortality at 200 ppm ([2]; Table ABCD) [%] | mortality at 50 µg/cm2 ([3]; Table ABCD) [%] | mortality at 50 µg/cm2 ([4]; Table ABCD) [%] | YFM % Control (or Mortality) rating ([1]; Table ABC) | mortality at 200 ppm ([2]; Table ABC) [%] | mortality at 50 µg/cm2 ([3]; Table ABC) [%] | mortality at 50 µg/cm2 ([4]; Table ABC) [%] |
| --- | --- | --- | --- | --- | --- | --- | --- | --- |
| CC(C)(C)OC(=O)NC1Cc2ccc(-c3ncn(-c4ccc(OC(F)(F)F)cc4)n3)cc2C1 (stereo not shown) [C1, tert-butyl (5-(1-(4-(trifluoromethoxy)phenyl)-1H-1,2,4-triazol-3-yl)-2,3-dihydro-1H-inden-2-yl)carbamate] | A (80-100) | 0 to 80 | 50 to 100 | 50 to 100 | – | – | – | – |
| Cc1ccc(C(C)C)c(N2C(=O)CS/C2=N\C(=O)NC2Cc3ccc(-c4ncn(-c5ccc(OC(F)(F)F)cc5)n4)cc3C2)c1 (stereo not shown) [F2, (Z)-1-(3-(2-isopropyl-5-methylphenyl)-4-oxothiazolidin-2-ylidene)-3-(5-(1-(4-(trifluoromethoxy)phenyl)-1H-1,2,4-triazol-3-yl)-2,3-dihydro-1H-inden-2-yl)urea] | – | – | – | – | A (80-100) | 0 to 80 | 50 to 100 | 50 to 100 |
| Cc1ccc(C(C)C)c(N2C(=O)CS/C2=N\C(=O)NC2Cc3ccc(-c4ncn(-c5ccc(OC(F)(F)C(F)(F)F)cc5)n4)cc3C2)c1 (stereo not shown) [F4, (Z)-1-(3-(2-Isopropyl-5-methylphenyl)-4-oxothiazolidin-2-ylidene)-3-(5-(1-(4-(perfluoroethoxy)phenyl)-1H-1,2,4-triazol-3-yl)-2,3-dihydro-1H-inden-2-yl)urea] | – | – | – | – | A (80-100) | 0 to 80 | 50 to 100 | 50 to 100 |
| CCc1ccccc1N1C(=O)CS/C1=N\C(=O)NC1Cc2ccc(-c3ncn(-c4ccc(OC(F)(F)F)cc4)n3)cc2C1 (stereo not shown) [F12, (Z)-1-(3-(2-Ethylphenyl)-4-oxothiazolidin-2-ylidene)-3-(5-(1-(4-(trifluoromethoxy)phenyl)-1H-1,2,4-triazol-3-yl)-2,3-dihydro-1H-inden-2-yl)urea] | – | – | – | – | A (80-100) | 0 | 50 to 100 | 50 to 100 |
| CCCc1ccc(C)cc1N1C(=O)CS/C1=N\C(=O)NC1Cc2ccc(-c3ncn(-c4ccc(OC(F)(F)F)cc4)n3)cc2C1 (stereo not shown) [F13, (Z)-1-(3-(5-Methyl-2-propylphenyl)-4-oxothiazolidin-2-ylidene)-3-(5-(1-(4-(trifluoromethoxy)phenyl)-1H-1,2,4-triazol-3-yl)-2,3-dihydro-1H-inden-2-yl)urea] | – | – | – | – | A (80-100) | 0 to 80 | 50 to 100 | 50 to 100 |
| O=C(/N=C1\SCC(=O)N1c1ccccc1C1CC1)NC1Cc2ccc(-c3ncn(-c4ccc(OC(F)(F)F)cc4)n3)cc2C1 (stereo not shown) [F15, (Z)-1-(3-(2-Cyclopropylphenyl)-4-oxothiazolidin-2-ylidene)-3-(5-(1-(4-(trifluoromethoxy)phenyl)-1H-1,2,4-triazol-3-yl)-2,3-dihydro-1H-inden-2-yl)urea] | – | – | – | – | A (80-100) | 0 to 80 | 50 to 100 | 50 to 100 |
| CC1S/C(=N\C(=O)NC2Cc3ccc(-c4ncn(-c5ccc(OC(F)(F)F)cc5)n4)cc3C2)N(c2ccccc2C(C)C)C1=O (stereo not shown) [FA2, (Z)-1-(3-(2-isopropylphenyl)-5-methyl-4-oxothiazolidin-2-ylidene)-3-(5-(1-(4-(trifluoromethoxy)phenyl)-1H-1,2,4-triazol-3-yl)-2,3-dihydro-1H-inden-2-yl)urea] | – | – | – | – | A (80-100) | 0 to 80 | 50 to 100 | 50 to 100 |
